# Measurements reported in paper PMC9739180, “Discovery of a Flavonoid FM04 as a Potent Inhibitor to Reverse P-Glycoprotein-Mediated Drug Resistance in Xenografts and Improve Oral Bioavailability of Paclitaxel” (International Journal of Molecular Sciences, 2022).
# Key:
# CYP2C8 = biological target: T1, CYP2C8 (Homo sapiens, UniProt P10632); assay: PTX metabolism in human liver microsomes: 6α-OHP formation; type: in vitro ADME; conditions: HLM
# T1 construct: tissue Research Institute for Liver Diseases (Shanghai); host or cells: 50-donor pooled human liver microsomes
# T1 sequence (P10632 1-490): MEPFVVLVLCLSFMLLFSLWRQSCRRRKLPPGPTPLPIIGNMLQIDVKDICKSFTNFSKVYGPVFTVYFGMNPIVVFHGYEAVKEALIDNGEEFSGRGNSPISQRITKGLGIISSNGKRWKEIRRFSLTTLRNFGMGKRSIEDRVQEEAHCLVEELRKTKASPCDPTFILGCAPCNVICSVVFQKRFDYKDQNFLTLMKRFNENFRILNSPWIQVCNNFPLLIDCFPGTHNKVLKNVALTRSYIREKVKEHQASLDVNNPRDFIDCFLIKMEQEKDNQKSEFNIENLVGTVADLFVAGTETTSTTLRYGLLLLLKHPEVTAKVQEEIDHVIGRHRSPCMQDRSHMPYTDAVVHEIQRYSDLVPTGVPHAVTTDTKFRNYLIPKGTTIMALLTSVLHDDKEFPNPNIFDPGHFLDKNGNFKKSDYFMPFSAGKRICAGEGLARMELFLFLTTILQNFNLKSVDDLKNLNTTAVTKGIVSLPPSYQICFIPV
# Method: Figure 7 Mechanistic study of FM04 to increase the oral PTX absorption. (A) transepithelial permeability of PTX in Caco-2 transwell assay. When confluent monolayer of Caco2 cells was formed on the transwell, the permeability of PTX (10 μM) was studied with or without FM04 (10 μM). For apical to basolateral transport (A to B), compound was added at the apical side (donor) and samples of the medium collected at the basal side (receiver) at 0, 20, 40, 60, 80, 100 and 120 min and vice versa for basal to apical transport (B to A). The PTX level was determined using UPLC-MS/MS. The relative % of PTX was presented as mean ± standard error of mean. N = 2–3 independent experiments. Impact of FM04 on PTX metabolism. […] After incubation, the levels of PTX, metabolites 6α-hydroxpaclitaxel (6α-OHP) and p3′-hydroxpaclitaxel (p3-OHP) were determined by HPLC-MS/MS. (B) changes in PTX. (C) changes in 6α-OHP. (D) changes in p3-OHP. […]
# Drug solutions of PTX and FM04 were prepared in methanol. […] PTX and PTX metabolites were immediately analyzed by UPLC-MS/MS on the same day.
# [^13C6]-paclitaxel (CAS: 379688-61-6) was the internal standard (IS) and purchased from Alsachim. Fifteen microliters of 10 μg/mL internal standard (IS) was added to all samples and calibration standards for quantification. […] PTX and both metabolites were semi-quantified base on the peak area ratio of the analyte/internal standard.
# [1] = Cytotoxicity assay (MTS, 3 days), L929; type: cell-based; conditions: L929 fibroblast cells; mouse fibroblast cell line
# Method: (§1) To each well of 96-well plate, 10,000 cells of LCC6, LCC6MDR or L929 were incubated with different concentrations of FM04 (0, 0.4, 1.2, 3.7, 11, 33 and 100 μM). The final volume in each well of 96-well plate was 100 μL and the plate was incubated for 3 days at 37 °C. The cell viability was determined using MTS assay as reported previously.
# MRP1 = biological target: T2, MRP1 (Homo sapiens, UniProt P33527); assay: MRP1-modulating activity in 2008/MRP1 cells (MTS); type: cell-based
# T2 construct: expressed in transfected cells; host or cells: 2008/MRP1 (human ovarian cancer)
# T2 sequence (P33527 whole entry): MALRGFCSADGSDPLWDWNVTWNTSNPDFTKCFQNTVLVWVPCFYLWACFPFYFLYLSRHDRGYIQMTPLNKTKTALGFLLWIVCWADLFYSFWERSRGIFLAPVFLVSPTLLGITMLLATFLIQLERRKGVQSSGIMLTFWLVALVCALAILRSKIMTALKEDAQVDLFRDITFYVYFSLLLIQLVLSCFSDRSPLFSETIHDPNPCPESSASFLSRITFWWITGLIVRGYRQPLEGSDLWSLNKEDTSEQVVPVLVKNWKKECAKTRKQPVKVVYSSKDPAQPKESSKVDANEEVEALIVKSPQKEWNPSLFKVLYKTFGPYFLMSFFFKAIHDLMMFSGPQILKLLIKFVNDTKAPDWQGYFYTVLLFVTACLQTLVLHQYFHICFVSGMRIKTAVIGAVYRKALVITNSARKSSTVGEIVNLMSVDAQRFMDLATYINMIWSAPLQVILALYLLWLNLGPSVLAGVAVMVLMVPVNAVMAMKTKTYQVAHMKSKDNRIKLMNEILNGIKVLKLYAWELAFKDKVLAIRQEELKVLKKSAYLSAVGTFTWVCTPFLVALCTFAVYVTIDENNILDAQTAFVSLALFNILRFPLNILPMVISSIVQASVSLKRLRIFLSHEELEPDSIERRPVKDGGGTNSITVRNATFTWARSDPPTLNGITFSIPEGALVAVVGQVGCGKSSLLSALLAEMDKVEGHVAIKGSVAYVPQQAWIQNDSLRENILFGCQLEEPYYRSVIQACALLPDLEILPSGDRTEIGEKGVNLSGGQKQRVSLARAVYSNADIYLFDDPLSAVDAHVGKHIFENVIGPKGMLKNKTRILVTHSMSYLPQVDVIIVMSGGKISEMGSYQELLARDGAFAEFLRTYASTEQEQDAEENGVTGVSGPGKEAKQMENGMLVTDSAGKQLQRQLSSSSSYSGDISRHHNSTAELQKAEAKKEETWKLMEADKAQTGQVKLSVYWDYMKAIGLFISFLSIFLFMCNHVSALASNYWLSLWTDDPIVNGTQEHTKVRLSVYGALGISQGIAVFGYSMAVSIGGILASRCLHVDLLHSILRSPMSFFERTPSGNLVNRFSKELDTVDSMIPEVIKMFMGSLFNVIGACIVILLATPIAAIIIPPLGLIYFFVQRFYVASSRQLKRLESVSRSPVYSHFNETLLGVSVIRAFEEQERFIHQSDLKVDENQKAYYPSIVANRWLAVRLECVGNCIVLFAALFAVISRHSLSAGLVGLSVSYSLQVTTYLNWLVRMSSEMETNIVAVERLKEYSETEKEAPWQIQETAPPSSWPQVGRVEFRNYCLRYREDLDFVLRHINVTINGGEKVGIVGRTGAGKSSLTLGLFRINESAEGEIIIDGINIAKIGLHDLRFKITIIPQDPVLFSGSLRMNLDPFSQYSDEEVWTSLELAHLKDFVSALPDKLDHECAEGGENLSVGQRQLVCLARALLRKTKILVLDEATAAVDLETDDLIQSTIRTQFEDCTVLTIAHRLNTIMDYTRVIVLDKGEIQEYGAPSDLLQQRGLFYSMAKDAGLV
# Method: The final volume in each well of the 96-well plate was 200 μL. The plate was then incubated for 5 days at 37 °C. The cell viability was determined using an MTS assay as reported previously.
# [2] = Cytotoxicity assay (MTS, 3 days), LCC6MDR; type: cell-based, human; conditions: human, LCC6MDR cells
# Method: as §1
# LCC6MDR = assay: Cytotoxicity assay (MTS, 3 days), LCC6MDR; type: cell-based, human; conditions: at 61 nM to 153 nM
# Method: as §1
smiles,measurement,setting,value
"O=c1cc(-c2ccc(OCCOCCNCc3ccccc3)cc2)oc2ccccc12 [FM04, 2-(4-(2-(2-(benzylamino)ethoxy)ethoxy)phenyl)-4H-chromen-4-one]",decrease of the level of 6α-OHP,CYP2C8; FM04 10 μM,44%
same,decrease of the level of 6α-OHP,CYP2C8; FM04 20 μM,48%
same,IC50 at 3 days,[1],33 µM
same,reversal of MRP1-mediated DOX resistance,"MRP1; 1 μM, 2008/MRP1",did not reverse
same,"RF, DOX in 2008/MRP1",MRP1; IC50 without modulator / IC50 with 1 µM modulator,1.2
same,IC50 at 3 days,[2],5.7 ± 1.5 µM
same,cytotoxicity of FM04 alone towards LCC6MDR cells,LCC6MDR,did not exhibit cytotoxicity
